Consider 9 molecules from patent publication US6866845B1, “Compositions and methods for the treatment of sepsis” (The Regents of the University of Michigan, priority 1999, dated 2005).

Where no end group is shown, it is not given here.

The subject of test [1] is human neutrophils. Briefly: chemotaxis of human neutrophils in chemotactic chambers. It is filed as cell-based. The following applies: for chemotactic activity of KLH conjugate compared to C5a peptide: calculated synthetic peptide concentration 100 nM, peptide:KLH approximately 3:1; for chemotactic response to peptide in medium alone: 1 μM peptide; for reduction in the chemotactic responses of neutrophils to human C5a: 1 μM peptide with 10 μM human C5a. As for the experimental part: This Example describes the ability of certain synthetic peptides representative of regions of human C5a peptide to reduce the chemotactic response of human neutrophils to human C5a peptide. Human neutrophils were isolated from human blood by traditional Ficoll-Hypaque sedimentation techniques. Using standardized methodology, neutrophils (5×10^6/ml) labeled with 1 μg/ml BCECF [2′,7′-(2 carboxyethyl)-5-(and-6)-carboxyfluroscein, acetoxymethy ester) at 37° C. for 30 min, were applied to the upper compartments of […] The two compartments were separated by a membrane with pore sizes of 3 μm. Neutrophil chemotactic responses were quantitated by cytofluorometry.
[…] Peptide A (SEQ ID NO:4) represents residues 1-20 of human C5a peptide, peptide M (SEQ ID NO: 5) represents residues 21-40 of human C5a peptide, and peptide C (SEQ ID NO:6) represents residues 55-74 of human C5a peptide.
This Example describes neutrophil chemotactic activity of peptides A, M, and C linked to keyholelimpet hemocyanin (KLH) employing the chemotactic assay described in Example 7. The peptide:KLH molar ratios employed were approximately 3:1. […]

Test [2] deals with human neutrophils. The experiment in a line: H2O2 production of human neutrophils stimulated by PMA. The following applies: for inhibition of PMA-elicited H2O2 response: neutrophils pretreated with peptide, then PMA. It counts as cell-based. From the text: This Example describes the effect of human C5a peptide, and certain shorter synthetic human C5a peptides A, M, or C, to inhibit the H2O2 production of human neutrophils stimulated by phorbol myristate acetate (PMA). Again, peptide A (SEQ ID NO:4) represents residues 1-20 of human C5a peptide, peptide M (SEQ ID NO: 5) represents residues 21-40 of human C5a peptide, and peptide C (SEQ ID NO:6) represents residues 55-74 of human C5a peptide. Human neutrophils were isolated and then pretreated with C5a peptide or one of the shorter synthetic peptides (A, M, or C). Cells were then stimulated with PMA and the production of H2O2 was measured.

The test system of test [3] is human neutrophils. The experiment in a line: competition with 125I-hC5a peptide binding to human neutrophils. The following applies: ratio of peptide to labelled hC5a 10:1. An excerpt:
This Examples describes certain peptides which are able to antagonize the ability of human C5a peptide to bind to human neutrophils. Three different peptides, labelled A, M, and C, were used to antagonize the binding of ^125I-hC5a peptide to human neutrophils. Again, peptide A (SEQ ID NO:4) represents residues 1-20 of human C5a peptide, peptide M (SEQ ID NO: 5) represents residues 21-40 of human C5a peptide, and peptide C (SEQ ID NO:6) represents residues 55-74 of human C5a peptide.
Human peripheral blood neutrophils (1×10^7 cells/ml) were incubated in Hank's buffered saline plus 0.1% bovine serum albumin with both ^123]-labelled hC5a peptide (300 μCi/nmol) and either peptide A, M, or C, in a final volume of 200 μl in a microfuge tube. The ratio of the shorter peptides (A, M, or C) to ^1251]-labelled hC5a peptide was 10:1. After incubation, cell suspension were layered over a 20% sucrose gradient and were sedimented by centrifugation at 11,000 g. The tubes were then frozen on dry ice, followed by cutting the tips containing the pellet. Cell-bound label was then determined by placing the tips in a gamma counter.

In test [4] the target is human peripheral blood neutrophils (surface sites that bind human C5a peptide) (human) (UniProt P21730). Briefly: cell-based or functional assay.
UniProt P21730, sequence (P21730 whole entry): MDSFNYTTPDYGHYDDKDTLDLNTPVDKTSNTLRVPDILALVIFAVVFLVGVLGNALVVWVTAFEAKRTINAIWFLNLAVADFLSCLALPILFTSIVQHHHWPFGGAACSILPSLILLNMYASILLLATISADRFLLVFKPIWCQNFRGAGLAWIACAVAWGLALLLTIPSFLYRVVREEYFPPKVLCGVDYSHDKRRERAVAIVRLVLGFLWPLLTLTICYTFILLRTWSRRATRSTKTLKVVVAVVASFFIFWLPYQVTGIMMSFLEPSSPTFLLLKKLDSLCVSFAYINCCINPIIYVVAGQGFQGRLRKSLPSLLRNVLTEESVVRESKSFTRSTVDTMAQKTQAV
Test [5] addresses rat C5a peptide (full length) (rat) (UniProt P08650). The experiment in a line: flow cytometry on rat blood neutrophils, control stain.
UniProt P08650, sequence (P08650 679-755 limits assumed): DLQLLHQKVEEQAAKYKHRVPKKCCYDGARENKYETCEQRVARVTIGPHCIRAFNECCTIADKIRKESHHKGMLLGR

Consider “A peptide KLH conjugate: peptide A (SEQ ID NO:4) linked to keyhole limpet hemocyanin, peptide:KLH approximately 3:1 (MLQKKIEEIAAKYKHSVVKK; also: linked to keyhole limpet hemocyanin, peptide:KLH ~3:1)”, for which, in the test with human neutrophils [1], the “chemotactic activity of KLH conjugate compared to C5a peptide” value is reported as “most chemotactically active”.

Turning to “CVVASQLRANISHKDMQLGR (listed as Homo sapiens) [peptide C, residues 55-74 of human C5a peptide]”, in the test on human neutrophils [1], the “chemotactic response to peptide in medium alone” value (“chemotactic response to peptide” for short) is reported as “did not per se induce any chemotactic responses” and the “reduction in the chemotactic responses of neutrophils to human C5a” value (“reduction in the chemotactic responses” below) is on record as “approximately 20%”. For the same molecule, the “inhibition of PMA-elicited H2O2 response” value with human neutrophils [2] is “to varying degrees”. The “reducing the binding of hC5a peptide to human neutrophils” value (from here on “reducing the binding of hC5a peptide”) in the test with human neutrophils [3] was “no statistically significant interference”.

Regarding “MLQKKIEEIAAKYKHSVVKK (listed as Homo sapiens) [peptide A, residues 1-20 of human C5a peptide]”, in the test with human neutrophils [1], the “chemotactic response to peptide” value is “did not per se induce any chemotactic responses” and the “reduction in the chemotactic responses” value is listed as “approximately 20%”. Besides, the “inhibition of PMA-elicited H2O2 response” value with human neutrophils [2] is reported as “to varying degrees”. For the same molecule, the “reducing the binding of hC5a peptide” value in the test on human neutrophils [3] was “significantly (p<0.05) competitive”.

Consider “CCYDGASVNNDETCEQRAAR (listed as Homo sapiens) [peptide M, residues 21-40 of human C5a peptide]”, for which, in the test on human neutrophils [1], the “chemotactic response to peptide” value was “did not per se induce any chemotactic responses” and the “reduction in the chemotactic responses” value is “approximately 20%”. Further, in the test with human neutrophils [2], the “inhibition of PMA-elicited H2O2 response” value was “strongest suppression”. The “reducing the binding of hC5a peptide” value with human neutrophils [3] is recorded as “significantly (p<0.05) competitive”.

Consider “peptide C (residues 55-74 of human C5a peptide)”, for which the chemotactic responses of neutrophils to human C5a in test [4] came to 20%.

Consider “C peptide conjugate: peptide C (SEQ ID NO:6) linked to keyhole limpet hemocyanin, peptide:KLH approximately 3:1 (CVVASQLRANISHKDMQLGR; also: linked to keyhole limpet hemocyanin, peptide:KLH ~3:1)”, for which the “chemotactic activity of KLH conjugate compared to C5a peptide” value with human neutrophils [1] is “almost as active”.

As for “M peptide conjugate: peptide M (SEQ ID NO:5) linked to keyhole limpet hemocyanin, peptide:KLH approximately 3:1 (CCYDGASVNNDETCEQRAAR; cysteine pairing not given here; also: linked to keyhole limpet hemocyanin, peptide:KLH ~3:1)”, the “chemotactic activity of KLH conjugate compared to C5a peptide” value with human neutrophils [1] was “no chemotactic activity”.

preimmune IgG (antibody) returned a Mean Channel Fluorescence (binding value) (MCF (mean ± SEM)) in test [5] of 4.45.

B1: MLQKKIEEIAAKYKHSVVKKCCYDGASVNNDETCEQRAARISLGPRCIKAFTECCVVASQLRANISHKDMQLGR (protein, listed as Homo sapiens)
chain: MLQKKIEEIAAKYKHSVVKKCCYDGASVNNDETCEQRAARISLGPRCIKAFTECCVVASQLRANISHKDMQLGR
notes: full length human complement component C5a peptide
Regarding B1, the “inhibition of PMA-elicited H2O2 response” value with human neutrophils [2] is recorded as “inhibitable”. The “effect on H2O2 production, peptide alone” value in the test with human neutrophils [2] (without PMA) is reported as “no effect”.
